From ChEMBL document CHEMBL5352409, “Design, synthesis, and pharmacological evaluation of 2-(1-(1,3,4-thiadiazol-2-yl)piperidin-4-yl)ethan-1-ol analogs as novel glutaminase 1 inhibitors” (Eur J Med Chem, 2022)
Activity calls are given as the source filed them. The calls are words filed in the database; no cut-off is given here.

Legend:
A549 [1] = experiment: Antiproliferative activity against human A549 cells assessed as reduction in cell viability; type: functional, cell-based
HCT-116 [2] = experiment: Inhibition of colony formation in human HCT-116 cells at 2 to 8 uM; type: functional, cell-based; conditions: dose 2-8 µM
in vitro = conditions: human, liver microsomes
Homo sapiens = species on record: Homo sapiens; experiment: Selectivity ratio of IC50 for GLS2 (unknown origin) to IC50 for GLS1 (unknown origin)
A549 [3] = experiment: Inhibition of glutaminase in human A549 cells assessed as ratio of glutamine to glutamate level (Rv b= 0.45 +/- 0.011); type: cell-based
[4] = human, microsomes
Description: Metabolic stability in human liver microsome assessed as intrinsic clearance

HCT-116 [5] = experiment: cells; conditions: Homo sapiens
[6] = biological target: T1, Glutaminase liver isoform, mitochondrial (Homo sapiens, UniProt Q9UI32); experiment: Inhibition of GLS2 (unknown origin)
T1 sequence (Q9UI32 whole entry): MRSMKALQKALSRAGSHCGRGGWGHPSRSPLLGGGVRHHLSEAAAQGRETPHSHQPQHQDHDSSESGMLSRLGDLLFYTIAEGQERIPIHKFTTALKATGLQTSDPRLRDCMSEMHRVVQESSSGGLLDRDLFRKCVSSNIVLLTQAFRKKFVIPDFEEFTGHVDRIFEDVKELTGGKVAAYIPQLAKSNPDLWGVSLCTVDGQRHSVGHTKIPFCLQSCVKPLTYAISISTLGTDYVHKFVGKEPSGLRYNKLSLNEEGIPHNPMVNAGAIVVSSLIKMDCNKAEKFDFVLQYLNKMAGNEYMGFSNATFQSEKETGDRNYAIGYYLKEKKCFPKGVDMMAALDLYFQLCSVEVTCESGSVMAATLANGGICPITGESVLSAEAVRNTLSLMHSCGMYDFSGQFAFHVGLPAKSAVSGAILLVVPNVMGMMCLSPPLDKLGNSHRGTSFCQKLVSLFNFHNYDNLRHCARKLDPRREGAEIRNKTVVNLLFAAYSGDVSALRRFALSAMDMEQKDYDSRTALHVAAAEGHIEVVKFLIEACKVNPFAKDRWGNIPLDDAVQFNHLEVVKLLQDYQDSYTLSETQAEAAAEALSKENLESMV

A549 [7] = experiment: Inhibition of colony formation in human A549 cells at 2 to 8 uM; type: functional, cell-based; conditions: dose 2-8 µM
[8] = biological target: T2, Glutaminase kidney isoform, mitochondrial (Homo sapiens, UniProt O94925); experiment: Inhibition of GLS1 (unknown origin)
T2 sequence (O94925 whole entry): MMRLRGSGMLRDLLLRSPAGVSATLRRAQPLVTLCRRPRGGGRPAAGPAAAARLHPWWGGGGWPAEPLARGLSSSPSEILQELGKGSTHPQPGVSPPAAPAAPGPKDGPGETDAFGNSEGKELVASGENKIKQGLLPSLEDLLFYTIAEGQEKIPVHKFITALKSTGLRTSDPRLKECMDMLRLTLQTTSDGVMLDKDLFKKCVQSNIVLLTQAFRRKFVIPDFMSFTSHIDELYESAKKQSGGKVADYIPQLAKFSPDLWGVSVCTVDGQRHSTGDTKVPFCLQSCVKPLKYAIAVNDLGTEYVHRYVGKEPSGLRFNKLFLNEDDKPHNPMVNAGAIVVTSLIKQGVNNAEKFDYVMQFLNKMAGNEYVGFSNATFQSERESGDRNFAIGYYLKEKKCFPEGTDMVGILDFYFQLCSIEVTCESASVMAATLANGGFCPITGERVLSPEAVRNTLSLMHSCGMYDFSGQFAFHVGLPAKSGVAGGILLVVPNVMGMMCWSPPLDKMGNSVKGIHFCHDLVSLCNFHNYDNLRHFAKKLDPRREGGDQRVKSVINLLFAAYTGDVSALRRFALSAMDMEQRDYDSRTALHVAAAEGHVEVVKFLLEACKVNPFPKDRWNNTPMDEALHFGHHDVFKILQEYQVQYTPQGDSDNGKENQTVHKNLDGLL

HCT-116 [9] = experiment: Potency index, ratio of BPTES IC50 to test compound IC50 for antiproliferative activity against human HCT-116 cells; type: functional
A549 [10] = experiment: Potency index, ratio of BPTES IC50 to test compound IC50 for antiproliferative activity against human A549 cells; type: functional
[11] = biological target: T3, Glutaminase kidney isoform, mitochondrial (Homo sapiens) (UniProt O94925); experiment: Potency index, ratio of BPTES IC50 to test compound IC50 for inhibition of GLS1 (unknown origin)
T3 sequence (whole entry): T2 sequence (O94925 whole entry)

[12] = Cmax in rat at 5 mg/kg, iv; type: ADME, organism-based; set-up: dose 5 mg/kg, route iv; conditions: in vivo
in vivo [13] = conditions: rat, po, 5 mg/kg
HCT-116 [14] = experiment: Antitumor activity against human HCT-116 cells xenografted in mouse model assessed as tumor growth inhibition at 100 mg/kg once daily via oral gavage administered for 28 days relative to control; type: functional; set-up: scale not given: the % may be the effect or the level left; conditions: time 28 day
A549 [15] = experiment: Antitumor activity against human A549 cells xenografted in mouse model assessed as tumor growth inhibition at 100 mg/kg once daily via oral gavage administered for 28 days relative to control; type: functional; set-up: scale not given: the % may be the effect or the level left; conditions: time 28 day
A549 [16] = experiment: Induction of apoptosis in human A549 cells assessed as early apoptotic cells at 10 uM incubated for 48 hrs by annexin V-FITC and propidium iodide based flow cytometry analysis (Rvb =12.289%); type: functional
[17] = Oral bioavailability in rat at 5 mg/kg; type: ADME, organism-based; conditions: in vivo
[18] = AUC(0 to t) in rat at 5 mg/kg, iv; type: ADME, organism-based; set-up: dose 5 mg/kg, route iv; conditions: in vivo
A549 [19] = experiment: Induction of apoptosis in human A549 cells assessed as early apoptotic cells at 5 uM incubated for 48 hrs by annexin V-FITC and propidium iodide based flow cytometry analysis (Rvb =12.289%); type: functional
A549 [20] = experiment: Induction of apoptosis in human A549 cells assessed as late apoptotic cells at 5 uM incubated for 48 hrs by annexin V-FITC and propidium iodide based flow cytometry analysis (Rvb =9.696%); type: functional
[21] = Cmax in rat at 5 mg/kg, po; type: ADME, organism-based; set-up: dose 5 mg/kg, route po; conditions: in vivo
in vivo [22] = conditions: rat, iv, 5 mg/kg
A549 [23] = experiment: Induction of apoptosis in human A549 cells assessed as late apoptotic cells at 10 uM incubated for 48 hrs by annexin V-FITC and propidium iodide based flow cytometry analysis (Rvb =9.696%); type: functional
A549 [24] = experiment: Induction of apoptosis in human A549 cells assessed as early apoptotic cells at 1 uM incubated for 48 hrs by annexin V-FITC and propidium iodide based flow cytometry analysis (Rvb =12.289%); type: functional
HCT-116 [25] = experiment: Antitumor activity against human HCT-116 cells xenografted in mouse model assessed as reduction in tumor cells at 100 mg/kg administered via oral gavage for 28 days; type: functional, organism-based; conditions: time 28.0 day
[26] = AUC(0 to t) in rat at 5 mg/kg, po; type: ADME, organism-based; set-up: dose 5 mg/kg, route po; conditions: in vivo
[27] = AUC(0 to t) in rat at 3 mg/kg, iv; type: ADME, organism-based; set-up: dose 3 mg/kg, route iv; conditions: in vivo
A549 [28] = experiment: Induction of apoptosis in human A549 cells assessed as late apoptotic cells at 1 uM incubated for 48 hrs by annexin V-FITC and propidium iodide based flow cytometry analysis (Rvb =9.696%); type: functional

Row | SMILES | IC50 (A549 [1]) | inhibition (HCT-116 [2]) | half-life (in vitro) | Ratio IC50 (Homo sapiens) | Ratio (A549 [3]) | CLH [4] | IC50 (HCT-116 [5]) | IC50 [6] | inhibition (A549 [7]) | IC50 [8] | further results
1 | CN1CCN(c2cccc(NC(=O)c3cccc(CN4CCN(c5nnc(NC(=O)Cc6ccccc6)s5)CC4)c3)c2)CC1 | 870 nM | Active | > 2 h | > 100 | 1.17 | 21.2 g/mL/min | 1130 nM | > 15000 nM | Active | 65 nM | 
2 | C=CCCC(=O)N1CCC(CNC(=O)c2ccc(COCCC3CCN(c4nnc(NC(=O)Cc5ccccc5)s4)CC3)cc2)CC1 | 1360 nM | Active |  |  |  |  | 2070 nM |  | Active | 268 nM | 
3 | CCCN1CCC(CNC(=O)c2ccc(COCCC3CCN(c4nnc(NC(=O)Cc5ccccc5)s4)CC3)cc2)CC1 | 1320 nM |  |  |  |  |  | 1690 nM |  |  | 290 nM | Ratio IC50 (HCT-116 [9]): 20; Ratio IC50 (A549 [10]): 20
4 | CN1CCC(CNC(=O)c2ccc(COCCC3CCN(c4nnc(NC(=O)Cc5ccccc5)s4)CC3)cc2)CC1 | 2310 nM |  |  |  |  |  | 1510 nM |  |  | 320 nM | Ratio IC50 (HCT-116 [9]): 20; Ratio IC50 (A549 [10]): 20
5 | CCCCCCN1CCC(CNC(=O)c2ccc(COCCC3CCN(c4nnc(NC(=O)Cc5ccccc5)s4)CC3)cc2)CC1 | 740 nM |  | > 2 h | > 100 | 1.42 | 22.3 g/mL/min | 340 nM | > 15000 nM |  | 88 nM | 
6 | CN1CCN(c2cccc(NC(=O)c3ccc(COCCC4CCN(c5nnc(NC(=O)Cc6ccccc6)s5)CC4)cc3)c2)CC1 | 650 nM |  | > 2 h | > 100 | 0.74 | 35.8 g/mL/min | 260 nM | > 15000 nM |  | 62 nM | 
7 | CN1CCN(c2cccc(NC(=O)c3ccc(CN4CCN(c5nnc(NC(=O)Cc6ccccc6)s5)CC4)cc3)c2)CC1 | 970 nM |  | 1.04 h | > 100 | 1.1 | 60.3 g/mL/min | 520 nM | > 15000 nM |  | 79 nM | 
8 | Cc1ccccc1CN1CCC(CNC(=O)c2cccc(COCCC3CCN(c4nnc(NC(=O)Cc5ccccc5)s4)CC3)c2)CC1 | 980 nM | Active | > 2 h | > 100 | 1.49 | 46.8 g/mL/min | 550 nM | > 15000 nM | Active | 85 nM | Ratio IC50 [11]: 50
9 | CN1CCN(c2ccc(C(=O)Nc3ccc(CN4CCN(c5nnc(NC(=O)Cc6ccccc6)s5)CC4)cc3)cc2)CC1 | 760 nM |  | 1.12 h | > 100 | 0.8 | 56.4 g/mL/min | 530 nM | > 15000 nM |  | 66 nM | 
10 | O=C(Cc1ccccc1)Nc1nnc(CCSCCc2nnc(NC(=O)Cc3ccccc3)s2)s1 | 49000 nM | Active |  |  |  |  | 44000 nM |  | Active |  | Cmax [12]: 493 ng/mL; half-life (in vivo [13]): 2.6 h; Activity (HCT-116 [14]): 22.3%; Activity (A549 [15]): 18.8%; Activity (A549 [16]): 9.331%; bioavailability [17]: 2.3%; AUCt [18]: 543.3 ng·h/mL; Activity (A549 [19]): 15.055%; Activity (A549 [20]): 11.666%; Cmax [21]: 17.8 ng/mL; half-life (in vivo [22]): 3.8 h; Activity (A549 [23]): 14.31%; Activity (A549 [24]): 15.403%; Activity (HCT-116 [25]): Active; AUC(0-t) [26]: 12.5 ng·h/mL; AUC(0-t) [27]: 2090 ng·h/mL; Activity (A549 [28]): 8.746%
